Laboratory results as given in the supplement of paper PMC10307832.

Assays:
Test in all cases: relative viability (nuclei count vs DMSO), 5 days (fraction); higher = more cells survive
Daporinad + Crizotinib = compound: O=C(/C=C/c1cccnc1)NCCCCC1CCN(C(=O)c2ccccc2)CC1 [Daporinad] + C[C@@H](Oc1cc(-c2cnn(C3CCNCC3)c2)cnc1N)c1c(Cl)ccc(F)c1Cl [Crizotinib] (partner 1 µM)
Summary of the method: (§1)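 Medians of duplicate plates are given as relative viability. That measure is the nuclei count in treated wells divided by the count in vehicle wells. Counts were taken on 4× images of lung cancer cell lines in 1536-well plates, 5 days after pin-tool dosing the day after seeding with one drug alone or a fixed anchor-drug dose plus five library-drug doses (not always all listed) in √10 steps.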

Daporinad + Bortezomib = compound: O=C(/C=C/c1cccnc1)NCCCCC1CCN(C(=O)c2ccccc2)CC1 [Daporinad] + CC(C)C[C@H](NC(=O)[C@H](Cc1ccccc1)NC(=O)c1cnccn1)B(O)O [Bortezomib] (partner 0.002 µM)
Summary of the method: as §1

Daporinad + Decitabine = compound: O=C(/C=C/c1cccnc1)NCCCCC1CCN(C(=O)c2ccccc2)CC1 [Daporinad] + Nc1ncn([C@H]2C[C@H](O)[C@@H](CO)O2)c(=O)n1 [Decitabine] (partner 2 µM)
Summary of the method: as §1

Daporinad + Olaparib = compound: O=C(/C=C/c1cccnc1)NCCCCC1CCN(C(=O)c2ccccc2)CC1 [Daporinad] + O=C(c1cc(Cc2n[nH]c(=O)c3ccccc23)ccc1F)N1CCN(C(=O)C2CC2)CC1 [Olaparib] (partner 8 µM)
Summary of the method: as §1

UMC-11
relative viability (Daporinad + Crizotinib; first compound 0.0005 µM): 0.672
relative viability (Daporinad + Crizotinib; first compound 0.001581 µM): 0.641
relative viability (Daporinad + Crizotinib; first compound 0.005 µM): 0.852
relative viability (Daporinad + Crizotinib; first compound 0.01581 µM): 0.656
relative viability (Daporinad + Bortezomib; first compound 0.0005 µM): 0.668
relative viability (Daporinad + Bortezomib; first compound 0.001581 µM): 0.373
relative viability (Daporinad + Bortezomib; first compound 0.005 µM): 0.678
relative viability (Daporinad + Bortezomib; first compound 0.01581 µM): 0.827
relative viability (Daporinad + Decitabine; first compound 0.0005 µM): 0.558
relative viability (Daporinad + Decitabine; first compound 0.001581 µM): 0.813
relative viability (Daporinad + Decitabine; first compound 0.005 µM): 0.625
relative viability (Daporinad + Decitabine; first compound 0.01581 µM): 0.54
relative viability (Daporinad + Olaparib; first compound 0.0005 µM): 0.294
relative viability (Daporinad + Olaparib; first compound 0.001581 µM): 0.339
relative viability (Daporinad + Olaparib; first compound 0.005 µM): 0.343
relative viability (Daporinad + Olaparib; first compound 0.01581 µM): 0.309
